Measured values reported in patent publication US7138361B2, “Herbicidal heterocycles” (E. I. du Pont de Nemours and Company, priority 2000, dated 2006).

What was measured:
Assay type in all cases: in vivo
[1] = tested on: pigweed (Amaranthus retroflexus); assay: Test B postemergence
In short: (§1)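 Post-treatment, species sat 13–15 days under greenhouse conditions before visual scoring against controls, 0 (no effect) through 100 (complete control). Application preemergence to sown seeds or postemergence at 1- to 4-leaf stage, using a non-phytotoxic solvent/surfactant formulation.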

[2] = tested on: barnyardgrass (Echinochloa crus-galli); assay: Test B postemergence
In short: as §1

[3] = tested on: velvetleaf (Abutilon theophrasti); assay: Test B postemergence
In short: as §1

[4] = tested on: blackgrass (Alopecurus myosuroides); assay: Test B postemergence
In short: as §1

[5] = tested on: wheat (Triticum aestivum); assay: Test B postemergence
In short: as §1

[6] = tested on: cocklebur (Xanthium strumarium); assay: Test B postemergence
In short: as §1

[7] = tested on: giant foxtail (Setaria faberii); assay: Test B postemergence
In short: as §1

[8] = tested on: lambsquarters (Chenopodium album); assay: Test B postemergence
In short: as §1

[9] = tested on: Surinam grass (Brachiaria decumbens); assay: Test B postemergence
In short: as §1

[10] = tested on: morning glory (Ipomoea hederacea); assay: Test B postemergence
In short: as §1

[11] = tested on: crabgrass (Digitaria sanguinalis); assay: Test B postemergence
In short: as §1

wild oat (Avena fatua) = assay: Test B postemergence
In short: as §1

corn (Zea mays) [12] = assay: Test B postemergence
In short: as §1

[13] = tested on: pigweed (Amaranthus retroflexus); assay: Test B preemergence
In short: as §1

[14] = tested on: barnyardgrass (Echinochloa crus-galli); assay: Test B preemergence
In short: as §1

[15] = tested on: velvetleaf (Abutilon theophrasti); assay: Test B preemergence
In short: as §1

[16] = tested on: cocklebur (Xanthium strumarium); assay: Test B preemergence; conditions: Preemergence, Rate 500 g/ha; scale 0 to 100, 0 no effect, 100 complete control
In short: as §1

rice (Oryza saliva) [17] = assay: Test B preemergence
In short: as §1

[18] = tested on: giant foxtail (Setaria faberii); assay: Test B preemergence
In short: as §1

[19] = tested on: lambsquarters (Chenopodium album); assay: Test B preemergence
In short: as §1

[20] = tested on: Surinam grass (Brachiaria decumbens); assay: Test B preemergence
In short: as §1

[21] = tested on: morning glory (Ipomoea hederacea); assay: Test B preemergence
In short: as §1

[22] = tested on: crabgrass (Digitaria sanguinalis); assay: Test B preemergence
In short: as §1

corn (Zea mays) [23] = assay: Test B preemergence
In short: as §1

[24] = tested on: barnyardgrass (Echinochloa crus-galli); assay: Test B flooded paddy test; conditions: Rate 1000 g/ha, scale of 0 to 100 where 0 is no effect and 100 is complete control, visually evaluated after 13 to 15 days
In short: (§2)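 Greenhouse-held for 13 to 15 days after treatment at the 2-leaf stage, paddy-grown plants were scored visually against controls on a 0-to-100 control scale; a dash marks no test result.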

[25] = tested on: duck salad (Heteranthera limosa); assay: Test B flooded paddy test; conditions: Rate 1000 g/ha, scale of 0 to 100 where 0 is no effect and 100 is complete control, visually evaluated after 13 to 15 days
In short: as §2

rice (Oryza saliva) [26] = assay: Test B flooded paddy test; conditions: Rate 1000 g/ha, scale of 0 to 100 where 0 is no effect and 100 is complete control, visually evaluated after 13 to 15 days
In short: as §2

[27] = tested on: smallflower flatsedge (Cyperus difformis); assay: Test B flooded paddy test; conditions: Rate 1000 g/ha, scale of 0 to 100 where 0 is no effect and 100 is complete control, visually evaluated after 13 to 15 days
In short: as §2

[28] = tested on: barnyardgrass (Echinochloa crus-galli); assay: Test C flooded paddy test
In short: (§3)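 Response on a 0-to-100 scale (no effect to complete control) was assessed by eye versus controls. Plants had reached 2 leaves when treated in flooded paddy conditions. The assessment took place after 12–14 days of greenhouse growth.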

[29] = tested on: duck salad (Heteranthera limosa); assay: Test C flooded paddy test
In short: as §3

rice (Oryza saliva) [30] = assay: Test C flooded paddy test
In short: as §3

[31] = tested on: smallflower flatsedge (Cyperus difformis); assay: Test C flooded paddy test; conditions: for Flatsedge plant response rating: Flooded Paddy, scale 0 to 100, 0 no effect, 100 complete control; for Plant response rating, Flatsedge: flooded paddy test, scale 0 to 100 (0 no effect, 100 complete control)
In short: as §3

[32] = Rate 125 g/ha, scale 0 (no effect) to 100 (complete control), 13 to 15 days
[33] = Rate 500 g/ha, scale 0 to 100, 0 is no effect, 100 is complete control, 13 to 15 days
[34] = Preemergence, Rate 500 g/ha, scale 0 to 100, 0 no effect, 100 complete control
[35] = preemergence, Rate 125 g/ha, scale 0 to 100, 0 no effect, 100 complete control
[36] = Flooded Paddy, Rate 500 g/ha, scale 0 to 100
[37] = Flooded Paddy, Rate 250 g/ha, scale 0 to 100, 0 no effect, 100 complete control
[38] = flooded paddy test, Rate 62 g/ha, scale 0 to 100 (0 no effect, 100 complete control)
[39] = flooded paddy test, Rate 125 g/ha, scale 0 to 100 (0 no effect, 100 complete control)
[40] = Rate 125 g/ha, scale 0 to 100, 0 no effect, 100 complete control
[41] = Rate 500 g/ha, scale 0 (no effect) to 100 (complete control), 13 to 15 days
[42] = preemergence, Rate 125 g/ha, scale of 0 to 100 where 0 is no effect and 100 is complete control, 13 to 15 days

Cc1cn(C2CCN(c3cccc(C(F)(F)F)c3)C2=O)nc1C(C)C (stereo not shown) [Compound 17]
Plant response rating, Pigweed [1, 32]: 0
Plant response rating, Pigweed [1, 33]: 0
Plant response rating, Barnyardgrass [2, 32]: 0
Plant response rating, Barnyardgrass [2, 33]: 0
Plant response rating, Velvetleaf [3, 32]: 0
Plant response rating, Velvetleaf [3, 33]: 0
Plant response rating, Blackgrass [4, 32]: 0
Plant response rating, Blackgrass [4, 33]: 0
Plant response rating, Wheat [5, 32]: 0
Plant response rating, Wheat [5, 33]: 0
Plant response rating, Cocklebur [6, 32]: 0
Plant response rating, Cocklebur [6, 33]: 0
Plant response rating, Foxtail, Giant [7, 32]: 0
Plant response rating, Foxtail, Giant [7, 33]: 0
Plant response rating, Lambsquarters [8, 32]: 80
Plant response rating, Lambsquarters [8, 33]: 80
Plant response rating, Surinam grass [9, 32]: 0
Plant response rating, Surinam grass [9, 33]: 0
Plant response rating, Morningglory [10, 32]: 0
Plant response rating, Morningglory [10, 33]: 0
Plant response rating, Crabgrass [11, 32]: 0
Plant response rating, Crabgrass [11, 33]: 0
Plant response rating, Wild Oat (wild oat (Avena fatua); [32]): 0
Plant response rating, Wild Oat (wild oat (Avena fatua); [33]): 0
Plant response rating, Corn (corn (Zea mays) [12]; [32]): 0
Plant response rating, Corn (corn (Zea mays) [12]; [33]): 0
Plant response rating, Pigweed [13, 34]: 0
Plant response rating, Pigweed [13, 35]: 0
Plant response rating, Barnyardgrass [14, 34]: 0
Plant response rating, Barnyardgrass [14, 35]: 0
Plant response rating, Velvetleaf [15, 34]: 0
Plant response rating, Cocklebur [16]: 0
Plant response rating, Rice (rice (Oryza saliva) [17]; [34]): 0
Plant response rating, Rice (rice (Oryza saliva) [17]; [35]): 0
Plant response rating, Foxtail, Giant [18, 34]: 0
Plant response rating, Foxtail, Giant [18, 35]: 0
Plant response rating, Lambsquarters [19, 34]: 0
Plant response rating, Surinam grass [20, 34]: 0
Plant response rating, Surinam grass [20, 35]: 0
Plant response rating, Morningglory [21, 34]: 0
Plant response rating, Crabgrass [22, 34]: 0
Plant response rating, Crabgrass [22, 35]: 0
Plant response rating, Corn (corn (Zea mays) [23]; [34]): 0
Plant response rating, Corn (corn (Zea mays) [23]; [35]): 0
Plant response rating, Barnyardgrass [24]: 80
Plant response rating, Ducksalad [25]: 60
Plant response rating, Rice (rice (Oryza saliva) [26]): 40
Plant response rating, Flatsedge [27]: 90
Plant response rating, Barnyardgrass [28, 36]: 70
Barnyardgrass plant response rating [28, 37]: 0
Plant response rating, Barnyardgrass [28, 38]: 0
Plant response rating, Barnyardgrass [28, 39]: 0
Plant response rating, Ducksalad [29, 36]: 80
Ducksalad plant response rating [29, 37]: 80
Plant response rating, Ducksalad [29, 38]: 30
Plant response rating, Ducksalad [29, 39]: 70
Plant response rating, Rice (rice (Oryza saliva) [30]; [36]): 0
Rice plant response rating (rice (Oryza saliva) [30]; [37]): 0
Plant response rating, Rice (rice (Oryza saliva) [30]; [38]): 0
Plant response rating, Rice (rice (Oryza saliva) [30]; [39]): 0
Flatsedge plant response rating ([31]; Rate 250 g/ha): 80
Flatsedge plant response rating ([31]; Rate 500 g/ha): 80
Plant response rating, Flatsedge ([31]; Rate 62 g/ha): 20
Plant response rating, Flatsedge ([31]; Rate 125 g/ha): 70

Cc1ccnc(N2CCC(n3ccc(C(C)(C)C)n3)C2=O)c1 (stereo not shown) [Compound 139]
Plant response rating, Pigweed [1, 40]: 0
Plant response rating, Pigweed [1, 41]: 0
Plant response rating, Barnyardgrass [2, 40]: 0
Plant response rating, Barnyardgrass [2, 41]: 0
Plant response rating, Velvetleaf [3, 40]: 0
Plant response rating, Velvetleaf [3, 41]: 0
Plant response rating, Blackgrass [4, 40]: 0
Plant response rating, Blackgrass [4, 41]: 0
Plant response rating, Wheat [5, 40]: 0
Plant response rating, Wheat [5, 41]: 0
Plant response rating, Cocklebur [6, 40]: 0
Plant response rating, Cocklebur [6, 41]: 0
Plant response rating, Foxtail, Giant [7, 40]: 0
Plant response rating, Foxtail, Giant [7, 41]: 0
Plant response rating, Lambsquarters [8, 40]: 0
Plant response rating, Lambsquarters [8, 41]: 0
Plant response rating, Surinam grass [9, 40]: 0
Plant response rating, Surinam grass [9, 41]: 0
Plant response rating, Morningglory [10, 40]: 0
Plant response rating, Morningglory [10, 41]: 0
Plant response rating, Crabgrass [11, 40]: 0
Plant response rating, Crabgrass [11, 41]: 0
Plant response rating, Wild Oat (wild oat (Avena fatua); [40]): 0
Plant response rating, Wild Oat (wild oat (Avena fatua); [41]): 0
Plant response rating, Corn (corn (Zea mays) [12]; [40]): 0
Plant response rating, Corn (corn (Zea mays) [12]; [41]): 0
Plant response rating, Pigweed [13, 34]: 100
Plant response rating, Pigweed [13, 42]: 0
Plant response rating, Barnyardgrass [14, 34]: 0
Plant response rating, Barnyardgrass [14, 42]: 0
Plant response rating, Velvetleaf [15, 34]: 0
Plant response rating, Velvetleaf [15, 42]: 0
Plant response rating, Cocklebur [16]: 0
Plant response rating, Rice (rice (Oryza saliva) [17]; [34]): 0
Plant response rating, Rice (rice (Oryza saliva) [17]; [42]): 0
Plant response rating, Foxtail, Giant [18, 34]: 0
Plant response rating, Foxtail, Giant [18, 42]: 0
Plant response rating, Lambsquarters [19, 34]: 100
Plant response rating, Lambsquarters [19, 42]: 100
Plant response rating, Surinam grass [20, 34]: 0
Plant response rating, Surinam grass [20, 42]: 0
Plant response rating, Morningglory [21, 34]: 0
Plant response rating, Morningglory [21, 42]: 0
Plant response rating, Crabgrass [22, 34]: 0
Plant response rating, Crabgrass [22, 42]: 0
Plant response rating, Corn (corn (Zea mays) [23]; [34]): 0
Plant response rating, Corn (corn (Zea mays) [23]; [42]): 0
Plant response rating, Barnyardgrass [24]: 20
Plant response rating, Ducksalad [25]: 0
Plant response rating, Rice (rice (Oryza saliva) [26]): 0
Plant response rating, Flatsedge [27]: 70
